Experiments:
CDK6/cyclinD3(h) = target: T1, CDK6/cyclinD3(h) (Homo sapiens, UniProt Q00534); assay: radiometric protein kinase assay, CDK6; type: biochemical; settings: enzyme inhibition, ATP 20 μM
T1 construct: purchased Eurofins, Dundee, Scotland
Procedure: (§1) Enzymatic biochemical activities were evaluated in radiometric protein kinase assays (Eurofins, Dundee, Scotland). Kinases are incubated with buffer, substrate and [γ-^33P]-ATP (specific activity approx. 500 cpm/pmol, concentration as required). The reaction is initiated by the addition of the MgATP mix. After incubation for 40 minutes at room temperature, the reaction is stopped by the addition of 3% phosphoric acid solution. 10 μL of the reaction is then spotted onto a P30 filtermat and washed three times for 5 minutes in 75 mM phosphoric acid and once in methanol prior to drying and scintillation counting.
(§2) All compounds are prepared to 50× final assay concentration in 100% DMSO. Positive control wells contain all components of the reaction with 2% DMSO. Blank wells contain all components of the reaction, with a reference inhibitor replacing the compound of interest. Each kinase is assigned a standard assay concentration of ATP within 20 μM of its apparent KM. Compounds were screened at 1 μM in duplicate or tested at 10 concentrations at half log dilution starting from 10 μM in singlicate. Dose response curves were fitted with four parameter logistic curve to obtain IC50 values. The average coefficient of variation (CV) of the conducted assay is 4.4%.

CDK1/cyclinB(h) = target: T2, CDK1/cyclinB(h) (Homo sapiens, UniProt P06493); assay: radiometric protein kinase assay, CDK1; type: biochemical; settings: enzyme inhibition, ATP 45 μM
T2 construct: purchased Eurofins, Dundee, Scotland
T2 sequence (P06493 whole entry): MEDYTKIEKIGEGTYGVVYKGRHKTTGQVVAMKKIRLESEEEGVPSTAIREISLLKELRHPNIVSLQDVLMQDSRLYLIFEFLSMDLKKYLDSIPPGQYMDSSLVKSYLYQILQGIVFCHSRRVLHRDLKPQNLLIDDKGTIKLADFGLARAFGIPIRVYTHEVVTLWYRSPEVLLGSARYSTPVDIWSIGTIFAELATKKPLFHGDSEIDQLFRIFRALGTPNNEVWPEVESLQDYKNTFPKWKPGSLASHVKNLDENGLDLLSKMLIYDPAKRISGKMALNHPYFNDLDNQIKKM
T2 sequence (P14635 whole entry partner): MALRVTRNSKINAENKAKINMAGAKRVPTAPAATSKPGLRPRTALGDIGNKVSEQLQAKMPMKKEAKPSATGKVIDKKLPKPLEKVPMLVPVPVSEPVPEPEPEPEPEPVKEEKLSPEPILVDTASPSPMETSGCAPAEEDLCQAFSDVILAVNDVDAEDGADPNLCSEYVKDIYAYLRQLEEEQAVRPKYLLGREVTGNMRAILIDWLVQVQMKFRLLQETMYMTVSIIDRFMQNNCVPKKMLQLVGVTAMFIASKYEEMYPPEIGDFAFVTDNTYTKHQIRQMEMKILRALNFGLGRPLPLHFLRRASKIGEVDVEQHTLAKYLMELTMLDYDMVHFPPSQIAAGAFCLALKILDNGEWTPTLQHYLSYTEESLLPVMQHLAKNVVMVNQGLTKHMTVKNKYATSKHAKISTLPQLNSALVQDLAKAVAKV
Procedure: as §1, §2

[1] = system: MDM2 alternate splicing in Rh-18 cells; assay: Rh-18 MDM2 RT-PCR gel-based assay (orthogonal secondary assay); type: cell-based; settings: 10 μM, 8 h
Procedure: These hits were then subjected to a confirmatory assay in the Rh-18 MDM2 RT-PCR gel-based assay at a concentration of 10 μM.
Referring to FIG. 6, cells were exposed to 0.5% DMSO, 0.2 μM sudemycin D6 or […] CGP-74514A for 8 h. Total RNA was extracted by RNeasy Mini Kit (Qiagen). High capacity RNA-to-cDNA kit (Life technologies) was used to convert the RNA to cDNA.
Referring to FIG. 7, cells were exposed to 0.5% DMSO (lane 1), 1 μM sudemycin D6 (lane 2), 10 μM Compound 14 (lane 3), and 10 μM Compound 15 (lane 4) for 8 h. The total RNA was extracted by RNeasy Mini Kit (Qiagen). High capacity RNA-to-cDNA kit (Life technologies) was used to convert the RNA to cDNA. […] Ubiquitin transcripts (165 bp) in the same cells were used as a control (Fan et al. (2011) ACS Chem. Biol. 6: 582-9).

Aurora-B(h) = target: T3, Aurora-B(h) (Homo sapiens, UniProt Q96GD4); assay: kinase profile, radiometric assay, Aurora-B; type: biochemical
T3 construct: purchased Eurofins, Dundee, Scotland
T3 sequence (Q96GD4 whole entry): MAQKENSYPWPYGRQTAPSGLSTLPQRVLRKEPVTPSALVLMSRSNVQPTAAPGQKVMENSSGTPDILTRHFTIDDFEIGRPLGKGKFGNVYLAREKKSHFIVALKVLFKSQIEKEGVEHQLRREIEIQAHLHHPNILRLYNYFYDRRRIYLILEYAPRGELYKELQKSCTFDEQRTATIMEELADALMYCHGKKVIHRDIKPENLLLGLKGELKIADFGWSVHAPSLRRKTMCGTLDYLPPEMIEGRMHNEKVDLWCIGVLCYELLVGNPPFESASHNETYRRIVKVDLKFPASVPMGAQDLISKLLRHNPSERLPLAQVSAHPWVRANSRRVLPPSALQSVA
Procedure: as §1, §2

[2] = system: SK-MEL-2/Luc-MDM2 cells (MDM2-Luc exon-skipping reporter); assay: cell-based MDM2-Luc exon-skipping reporter assay; settings: for luciferase response (Luc fold) in the MDM2-Luc reporter assay: compared with less potent CLK inhibitors of the series; for MDM2/Luc: luciferase activation vs DMSO control, average of three experiments
[3] = system: PI3 Kinase (p110β/p85α)(h); assay: kinase profile, non-radiometric HTRF assay, PI3 kinases; type: biochemical, human; settings: at 1 μM
CLK3(h) = target: T4, CLK3(h) (Homo sapiens, UniProt P49761); assay: radiometric protein kinase assay, CLK3; type: biochemical; settings: enzyme inhibition, radiometric, ATP 90 μM; read-out: IC50 (nM) CLK3
T4 construct: purchased Eurofins, Dundee, Scotland
T4 sequence (P49761 whole entry): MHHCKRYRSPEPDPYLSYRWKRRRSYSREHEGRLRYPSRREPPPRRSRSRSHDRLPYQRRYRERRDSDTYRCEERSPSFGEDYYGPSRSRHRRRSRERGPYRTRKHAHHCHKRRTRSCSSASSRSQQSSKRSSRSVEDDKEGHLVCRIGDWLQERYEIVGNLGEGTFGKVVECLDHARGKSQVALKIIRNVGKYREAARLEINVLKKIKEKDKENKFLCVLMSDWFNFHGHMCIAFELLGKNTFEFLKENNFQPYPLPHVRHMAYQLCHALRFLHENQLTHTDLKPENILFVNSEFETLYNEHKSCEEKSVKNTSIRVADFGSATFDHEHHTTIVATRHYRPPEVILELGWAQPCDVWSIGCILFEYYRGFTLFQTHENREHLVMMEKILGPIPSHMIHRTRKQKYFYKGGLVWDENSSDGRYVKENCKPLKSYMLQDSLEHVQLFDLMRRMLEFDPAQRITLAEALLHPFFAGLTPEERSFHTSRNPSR
Procedure: as §1, §2

CDK4/cyclinD3(h) = target: T5, CDK4/cyclinD3(h) (Homo sapiens, UniProt P11802); assay: radiometric protein kinase assay, CDK4; type: biochemical; settings: enzyme inhibition, ATP 20 μM
T5 construct: purchased Eurofins, Dundee, Scotland
T5 sequence (P11802 whole entry): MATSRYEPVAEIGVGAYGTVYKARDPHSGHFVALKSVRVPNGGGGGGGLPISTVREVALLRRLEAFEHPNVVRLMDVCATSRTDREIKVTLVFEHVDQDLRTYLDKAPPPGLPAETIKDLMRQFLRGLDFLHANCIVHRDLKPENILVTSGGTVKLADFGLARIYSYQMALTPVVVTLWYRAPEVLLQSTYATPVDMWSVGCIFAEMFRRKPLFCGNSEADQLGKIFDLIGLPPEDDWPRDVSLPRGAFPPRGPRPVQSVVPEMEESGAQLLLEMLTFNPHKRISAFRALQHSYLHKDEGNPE
T5 sequence (P30281 whole entry partner): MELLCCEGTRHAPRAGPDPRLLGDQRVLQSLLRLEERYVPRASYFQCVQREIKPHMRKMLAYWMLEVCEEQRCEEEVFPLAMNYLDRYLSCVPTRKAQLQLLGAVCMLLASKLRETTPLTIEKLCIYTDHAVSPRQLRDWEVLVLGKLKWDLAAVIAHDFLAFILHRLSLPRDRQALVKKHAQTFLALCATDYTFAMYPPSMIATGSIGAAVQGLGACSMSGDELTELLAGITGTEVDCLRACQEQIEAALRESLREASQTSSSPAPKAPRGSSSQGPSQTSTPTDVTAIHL
Procedure: as §1, §2

MEKK2(h) = target: T6, MEKK2(h) (Homo sapiens, UniProt Q9Y2U5); assay: kinase profile, radiometric assay, MEKK2; type: biochemical
T6 construct: purchased Eurofins, Dundee, Scotland
T6 sequence (Q9Y2U5 1-619): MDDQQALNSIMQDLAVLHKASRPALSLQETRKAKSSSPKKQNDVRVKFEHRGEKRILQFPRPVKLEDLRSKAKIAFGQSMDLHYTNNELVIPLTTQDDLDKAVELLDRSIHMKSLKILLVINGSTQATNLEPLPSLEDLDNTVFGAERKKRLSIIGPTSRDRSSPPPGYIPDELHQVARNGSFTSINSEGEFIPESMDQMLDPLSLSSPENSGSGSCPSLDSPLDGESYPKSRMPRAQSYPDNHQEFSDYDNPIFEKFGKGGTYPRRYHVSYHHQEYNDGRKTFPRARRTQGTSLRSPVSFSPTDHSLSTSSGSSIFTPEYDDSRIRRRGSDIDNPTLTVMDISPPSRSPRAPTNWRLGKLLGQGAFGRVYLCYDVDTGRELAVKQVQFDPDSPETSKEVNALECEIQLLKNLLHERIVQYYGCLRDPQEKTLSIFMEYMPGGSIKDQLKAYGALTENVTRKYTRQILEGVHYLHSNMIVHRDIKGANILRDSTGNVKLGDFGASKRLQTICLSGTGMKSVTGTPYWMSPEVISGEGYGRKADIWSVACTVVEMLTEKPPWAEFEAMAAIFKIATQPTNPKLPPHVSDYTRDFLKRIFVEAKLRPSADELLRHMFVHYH
Procedure: as §1, §2

22 oncogenic kinases = assay: kinase profiling against 22 oncogenic kinases; type: biochemical, human; settings: 1 μM in duplicate
Procedure: as §1, §2

[4] = first of three lines printed with this name (r24)
[5] = second of three lines with this name
[6] = third of three lines printed with this name (r26)

T1 sequence (Q00534 whole entry): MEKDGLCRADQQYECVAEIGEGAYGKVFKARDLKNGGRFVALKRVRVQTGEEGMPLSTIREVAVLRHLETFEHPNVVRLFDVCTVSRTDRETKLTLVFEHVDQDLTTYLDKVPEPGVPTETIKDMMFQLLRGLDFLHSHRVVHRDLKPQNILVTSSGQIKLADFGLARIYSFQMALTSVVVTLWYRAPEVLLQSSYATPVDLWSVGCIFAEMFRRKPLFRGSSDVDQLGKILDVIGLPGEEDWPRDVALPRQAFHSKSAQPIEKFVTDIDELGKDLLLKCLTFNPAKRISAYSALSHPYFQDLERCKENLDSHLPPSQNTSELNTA
T1 sequence (P30281 whole entry partner): as the sequence (P30281 whole entry partner) above

Row | Structure (SMILES) | IC50 (CDK6/cyclinD3(h)) [nM] | IC50 (CDK1/cyclinB(h)) [nM] | activity in the Rh-18 MDM2 RT-PCR gel-based confirmatory assay [1] | inhibition at 1 µM (Aurora-B(h)) [%] | luciferase response (Luc fold) in the MDM2-Luc reporter assay [2] | MDM2/Luc [2] | MDM2-Luc activity ([2]; result in words, no concentration stated) | % Inhibition PI3 Kinase (p110β/p85α)(h) [3, 4] [%] | % Inhibition PI3 Kinase (p110β/p85α)(h) [3, 5] [%] | % Inhibition PI3 Kinase (p110β/p85α)(h) [3, 6] [%] | IC50 (CLK3(h)) [nM] | IC50 (CDK4/cyclinD3(h)) [nM] | inhibition at 1 µM (MEKK2(h)) [%] | inhibition against the entire 22 diverse kinase panel (22 oncogenic kinases) [%]
1 | CC(C)n1cnc2c(Nc3cc(N)cc(Cl)c3)nc(NC3CCCCC3N)nc21 (racemic) [Compound 14, Racemic N^6-Cis-(3-Amino-5-Chlorophenyl)-N^2-(2-Aminocyclohexyl)-9-Isopropyl-9H-Purine-2,6-Diamine] | > 1000 | 973 | confirmation | -16 | stronger luciferase response | Active | strong MDM2-Luc activity | 4 | 0 | 1 | > 1000 | > 1000 | 48 | –
2 | CC(C)n1cnc2c(Nc3cccc(Cl)c3)nc(N[C@H]3CCCC[C@@H]3N)nc21 [Compound 8, N^2-((1S,2S)-2-Aminocyclohexyl)-V-(3-Chlorophenyl)-9-Isopropyl-9H-Purine-2,6-Diamine] | – | – | – | -15 | – | Active | – | 5 | 2 | 2 | – | – | 47 | < 50
3 | CC(C)n1cnc2c(Nc3cccc(Cl)c3)nc(N[C@@H]3CCCC[C@@H]3N)nc21 [Compound 9, N^2-((1R,2S)-2-Aminocyclohexyl)-N^6-(3-Chlorophenyl)-9-Isopropyl-9H-Purine-2,6-Diamine] | – | – | – | -16 | stronger luciferase response | Active | – | 4 | 3 | 5 | – | – | 18 | –
